From patent US20250296971A1, “GASTRIC INHIBITORY PEPTIDE RECEPTOR LIGANDS” (priority 2021, published 2025)
Like-named read-outs stand apart in the source and are kept apart here. *1 amine or outer side, *2 acyl side, *3 side chain or, on linkers, in order; H or OH if unused. Where a SMILES comes first, the peptide text is derived from it. Bridges are numbered along the chain shown (N, C = ends). [ ]: non-standard residue; d: D form. The star is where a group is joined. DOTA(Ga) = O=C1CN2CCN3CCN(CC(=O)*)CCN(CC2)CC(=O)[O][Ga]([O]1)[O]C(=O)C3; DOTA(In) = O=C1CN2CCN3CCN(CC(=O)*)CCN(CC2)CC(=O)[O][In]([O]1)[O]C(=O)C3; X3 = O=C(O)CN1CCN(CC(=O)O)CCN(CC(=O)NCCCOCCOCCOCCCN*)CCN(CC(=O)O)CC1; NH(1-deoxy-D-glucityl) = OC[C@@H](O)[C@@H](O)[C@H](O)[C@@H](O)CN*; DOTA = O=C(O)CN1CCN(CC(=O)O)CCN(CC(=O)*)CCN(CC(=O)O)CC1; Trp(5-Cl) = N[C@@H](Cc1c[nH]c2ccc(Cl)cc12)C(=O)O; Pyridine(2,6-diCH2) = c1cc(C[*:1])nc(C[*:2])c1; Pro(4R-NH2) = N[C@H]1CN[C@H](C(=O)O)C1; Glutaryl = O=C(CCCC(=O)[*:2])[*:1]; X6 = c1cc(CSCCN[*:2])nc(C[*:1])c1; Hyp = O=C(O)[C@@H]1C[C@@H](O)CN1; X1 = O=C(CN1CCC(N[*:1])CC1)[*:2]; Suc = O=C(CCC(=O)[*:2])[*:1]; Api = NC1(C(=O)O)CCNCC1; Thp = NC1(C(=O)O)CCOCC1

Columns and labels:
[1] = target: T1, GIPR (CHO-K1-hGIPR cells) (Homo sapiens, UniProt P48546); assay: FACS binding assay
T1 construct: host or cells: CHO-K1
T1 sequence (P48546 22-466): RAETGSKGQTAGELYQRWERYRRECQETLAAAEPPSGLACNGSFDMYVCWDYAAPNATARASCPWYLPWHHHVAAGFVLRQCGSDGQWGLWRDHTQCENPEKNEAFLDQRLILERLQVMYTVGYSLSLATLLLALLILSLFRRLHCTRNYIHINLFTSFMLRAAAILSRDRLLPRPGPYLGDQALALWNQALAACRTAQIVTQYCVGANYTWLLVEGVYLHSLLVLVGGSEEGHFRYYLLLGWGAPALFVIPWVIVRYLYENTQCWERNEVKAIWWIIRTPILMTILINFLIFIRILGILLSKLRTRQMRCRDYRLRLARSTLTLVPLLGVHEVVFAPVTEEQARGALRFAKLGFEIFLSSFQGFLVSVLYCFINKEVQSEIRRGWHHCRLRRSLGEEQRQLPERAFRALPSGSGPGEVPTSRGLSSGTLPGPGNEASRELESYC
In short: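 Median fluorescence in the APC channel, measured on washed CHO-K1 cells overexpressing human GIPR, was fitted by four-parameter logistic regression against peptide concentration to yield EC50 or IC50 values. Secondary labelling used APC-streptavidin (1 μg/mL, 30 min, ice).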

[2] = target: T2, human GIP receptor (bioGIPR) (Homo sapiens, UniProt P48546); assay: Surface plasmon resonance (SPR) based binding assay; conditions: Single Cycle Kinetic mode, 25° C.; for Kd: SPR, 1:1 Langmuir binding model, read-out: pKD Category (converted); for t1/2 Category: SPR dissociation half-life
T2 construct: Biotinylate extracellular of the human GIP receptor (bioGIPR, Proteros biostructures GmbH, lot #02/2b); purchased Proteros biostructures GmbH lot #02/2b
T2 sequence (P48546 22-138 limits assumed): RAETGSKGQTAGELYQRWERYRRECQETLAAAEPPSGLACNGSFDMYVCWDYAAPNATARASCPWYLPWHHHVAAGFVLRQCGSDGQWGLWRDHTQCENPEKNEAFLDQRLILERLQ
In short: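 Binding was measured at 25 °C by single-cycle kinetics against a reference flow cell, with blank-run and drift correction, after capturing biotinylated GIPR extracellular domain to ~3500 RU. Running buffer: HBST, 0.1% DMSO. A 1:1 Langmuir model gave kinetic rates, KD, t1/2 and pKD.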

[3] = competition with 20 nM GIP-057, 4° C., 1 hour, read-out: pIC50 Category (converted)

SMILES	IC50 ([1]; pIC50 Category, competition with 20 nM GIP-057, 4° C., 1 hour) [nM]	Kd [2] [nM]	IC50 ([1]; competition with 20 nM GIP-057, 4° C. for 1 hour, read-out: pIC50 Category (converted)) [nM]	t1/2 Category [2]	IC50 [1, 3] [nM]
CC[C@H](C)[C@@H]1NC(=O)[C@H](CC(C)C)NC(=O)C2(CCN(C(=O)CN3CCN4CCN5CCN(CC3)CC(=O)[O][In]([O]C(=O)C5)[O]C(=O)C4)CC2)NC(=O)[C@@H](NC(=O)[C@@H](CC(C)C)NC(=O)[C@H](CCC(=O)O)NC(=O)[C@@H]2C[C@@H](O)CN2C(=O)[C@H](Cc2c[nH]c3ccc(Cl)cc23)NC(=O)[C@H](Cc2c[nH]c3ccccc23)NC(=O)CCC(=O)O)CSCc2cccc(n2)CSCCNC1=O [GIP-169, HO-Succinyl-Trp-5Clw-Hyp-Glu-leu-[Cys(2Lut)-Apc(InDOTA)-Leu-Ile-AET]] (Suc-W[Trp(5-Cl)][Hyp]E[dL]C[Api](DOTA(In))LI; linker 6-C via X6)	< 10	< 1			
CC[C@H](C)[C@@H]1NC(=O)[C@H](CC(C)C)NC(=O)C2(CCOCC2)NC(=O)[C@@H](NC(=O)[C@@H](CC(C)C)NC(=O)[C@H](CCCCN)NC(=O)[C@@H]2C[C@@H](O)CN2C(=O)[C@H](Cc2c[nH]c3ccc(Cl)cc23)NC(=O)[C@H](Cc2c[nH]c3ccccc23)NC(=O)[C@H](CC(=O)O)NC(C)=O)CSCc2cccc(n2)CSC[C@@H](C(N)=O)NC1=O [GIP-375, Ac-Asp-Trp-5Clw-Hyp-Lys-leu-[Cys(2Lut)-Thp-Leu-Ile-Cys]-NH2] (Ac-DW[Trp(5-Cl)][Hyp]K[dL]C[Thp]LIC-NH2; linker 7-11 via Pyridine(2,6-diCH2))		1 to 7.94	< 10	A (t1/2 values>15 min)	
CC[C@H](C)[C@@H]1NC(=O)[C@H](CC(C)C)NC(=O)C2(CCOCC2)NC(=O)[C@@H](NC(=O)[C@@H](CC(C)C)NC(=O)[C@H](CCC(=O)O)NC(=O)[C@@H]2C[C@@H](O)CN2C(=O)[C@H](Cc2c[nH]c3ccc(Cl)cc23)NC(=O)[C@H](Cc2c[nH]c3ccccc23)NC(=O)[C@H](CC(=O)O)NC(=O)CCCC(=O)NC[C@H](O)[C@@H](O)[C@H](O)[C@H](O)CO)CSCc2cccc(n2)CSC[C@@H](C(=O)NC2CCN(CC(=O)N[C@H](CCC(=O)NC[C@H](O)[C@@H](O)[C@H](O)[C@H](O)CO)C(=O)N[C@@H](CCCCNC(=O)CN3CCN(CC(=O)O)CCN(CC(=O)O)CCN(CC(=O)O)CC3)C(N)=O)CC2)NC1=O [GIP-004, AGLU-Glutar-Asp-Trp-5Clw-Hyp-Glu-leu-[Cys(2Lut)-Thp-Leu-Ile-Cys]-APAc-glu(AGLU)-Lys(DOTA)-NH2] ({NH(1-deoxy-D-glucityl)-Glutaryl}-DW[Trp(5-Cl)][Hyp]E[dL]C[Thp]LIC[X1][dE](NH(1-deoxy-D-glucityl))K(DOTA)-NH2; linker 7-11 via Pyridine(2,6-diCH2))		< 1		A (t1/2 values>15 min)	< 10
CC[C@H](C)[C@@H]1NC(=O)[C@H](CC(C)C)NC(=O)C2(CCN(C(=O)CN3CCN4CCN5CCN(CC3)CC(=O)[O][Ga]([O]C(=O)C5)[O]C(=O)C4)CC2)NC(=O)[C@@H](NC(=O)[C@@H](CC(C)C)NC(=O)[C@H](CCC(=O)O)NC(=O)[C@@H]2C[C@@H](N)CN2C(=O)[C@H](Cc2c[nH]c3ccc(Cl)cc23)NC(=O)[C@H](Cc2c[nH]c3ccccc23)NC(=O)[C@H](CC(=O)O)NC(=O)CCCC(=O)NC[C@H](O)[C@@H](O)[C@H](O)[C@H](O)CO)CSCc2cccc(n2)CSC[C@@H](C(=O)NC2CCN(CC(=O)N[C@H](CCC(=O)NC[C@H](O)[C@@H](O)[C@H](O)[C@H](O)CO)C(N)=O)CC2)NC1=O [GIP-069, Gallium-Complex of AGLU-Glutar-Asp-Trp-5Clw-Tap-Glu-leu-[Cys(2Lut)-Apc(DOTA)-Leu-Ile-Cys]-APAc-glu(AGLU)-NH2] ({NH(1-deoxy-D-glucityl)-Glutaryl}-DW[Trp(5-Cl)][Pro(4R-NH2)]E[dL]C[Api](DOTA(Ga))LIC[X1][dE](NH(1-deoxy-D-glucityl))-NH2; linker 7-11 via Pyridine(2,6-diCH2))		< 1		A (t1/2 values>15 min)	< 10
CC[C@H](C)[C@@H]1NC(=O)[C@H](CC(C)C)NC(=O)C2(CCNCC2)NC(=O)[C@@H](NC(=O)[C@@H](CC(C)C)NC(=O)[C@H](CCC(=O)O)NC(=O)[C@@H]2CCCN2C(=O)[C@H](Cc2c[nH]c3ccc(Cl)cc23)NC(=O)[C@H](Cc2c[nH]c3ccccc23)NC(=O)[C@H](CC(=O)O)NC(=O)CCC(=O)NCCCOCCOCCOCCCNC(=O)CN2CCN(CC(=O)O)CCN(CC(=O)O)CCN(CC(=O)O)CC2)CSCc2cccc(n2)CSCCNC1=O [GIP-119, DOTA-Ttds-Asp-Trp-5Clw-Pro-Glu-leu-[Cys(2Lut)-Apc-Leu-Ile-AET]] ({X3-Suc}-DW[Trp(5-Cl)]PE[dL]C[Api]LI; linker 7-C via X6)		< 1		A (t1/2 values>15 min)	< 10
